Test results reported in US11241374B2, “Compositions and methods for treating skin conditions using light and glucosamine hydrochloride” (Johnson & Johnson Consumer Inc., priority 2018, dated 2022).
Entries after “also recorded” stand apart in the source; their conditions may differ.

System: Human dermal fibroblasts
Assay: Hyaluronic acid (HA) secretion by human dermal fibroblasts, Hyaluronan ELISA of culture media
Format: cell-based
Conditions: for Synergy of active with red and/or near infrared light in hyaluronic acid production: combination of active and light versus light alone; for Fold Change versus treatment with light alone: net HA
Protocol: Human dermal fibroblasts are maintained in flask in growth medium consisting of Dulbeccos' Modified Eagle Medium (DMEM) plus 10% fetal bovine serum, 50 units/ml penicillin and 50 μg/ml streptomycin. Cells are seeded at 10,000 cells per well in a 96 well plate in phenol-red-free Dulbeccos' Modified Eagle Medium (DMEM) plus 2% fetal bovine serum, 50 units/ml penicillin and 50 μg/ml streptomycin for 24 hours before the treatments. Glucosamine HCl or other actives were dissolved in 1×PBS at 10% stock and added into the medium at various concentrations for 48 hours. Culture media is collected at 48 hours post-treatment, and measured for HA (Hyaluronic acid) secretion using Hyaluronan ELISA kit (Echelon, cat. #K-1200) following the manufacturer protocol. To assess activity, the colorimetric chance is measured at 405 nm. The net HA secretion of each tested treatment is calculated by the amount of the HA secretion from each respective individual treatment minus the amount of the HA secretion from the untreated treatment. Then, the fold increase provided by the combination of the treatments by light+active is calculated as the fold change in net HA secreted from the application of the combined light plus active treatment divided by the net HA secreted from the treatment by light alone. […]

[1] = 0.02% active alone in cell media, no light, 48 hours
[2] = Red (633 nm) + NIR (830 nm) light 0.3 J/cm^2 each + 0.02% active
[3] = Red + NIR light 0.3 J/cm^2 each + 0.02% active
[4] = Red + NIR light 0.3 J/cm^2 each + 0.2% active
[5] = Red + NIR light 3 J/cm^2 each + 0.02% active
[6] = Red + NIR light 3 J/cm^2 each + 0.2% active

CC(=O)N[C@H]1C(O)O[C@H](CO)[C@@H](O)[C@@H]1O (some centres unmarked) [N-acetyl Glucosamine, N-acetyl glucosamine, reference compound]
HA concentrations [1]: 735 ng/mL | Change in HA concentration over Untreated (0.02% active alone, no light): -125 ng/mL | HA concentrations [2]: 1878 ng/mL | Change in HA concentration over Untreated [3]: 1018 ng/mL | Synergy of active with red and/or near infrared light in hyaluronic acid production: No synergy was observed; also recorded: not observed | Fold Change versus treatment with light alone [3]: 1.1

Cl.N[C@H]1C(O)O[C@H](CO)[C@@H](O)[C@@H]1O (some centres unmarked) [Glucosamine HCl, glucosamine hydrochloride]
HA concentrations [1]: 543 ng/mL | Change in HA concentration over Untreated (0.02% active alone, no light): -8 ng/mL | HA concentrations (0.2% active alone in cell media, no light, 48 hours): 999 ng/mL | Change in HA concentration over Untreated (0.2% active alone, no light): +448 ng/ml | HA concentrations [2]: 2489 ng/mL | HA concentrations (Red (633 nm) + NIR (830 nm) light 0.3 J/cm^2 each + 0.2% active): 2260 ng/mL | HA concentrations (Red (633 nm) + NIR (830 nm) light 3 J/cm^2 each + 0.02% active): 4379 ng/mL | HA concentrations (Red (633 nm) + NIR (830 nm) light 3 J/cm^2 each + 0.2% active): 3873 ng/mL | Change in HA concentration over Untreated [3]: +1938 ng/ml | Change in HA concentration over Untreated [4]: +1709 ng/ml | Change in HA concentration over Untreated [5]: +3828 ng/ml | Change in HA concentration over Untreated [6]: +3322 ng/ml | Synergy of active with red and/or near infrared light in hyaluronic acid production (listed as glucosamine HCl, hydrochloride): synergistically increased the hyaluronic acid secretion | Synergy of active with red and/or near infrared light in hyaluronic acid production (listed as glucosamine hydrochloride, hydrochloride): synergistically increases hyaluronic acid production | Fold Change versus treatment with light alone [3]: 2.25 | Fold Change versus treatment with light alone [4]: 1.98 | Fold Change versus treatment with light alone [5]: 2.99 | Fold Change versus treatment with light alone [6]: 2.60

N[C@H]1C(O)O[C@H](CO)[C@@H](O)[C@@H]1O.O=P(O)(O)O (some centres unmarked) [Glucosamine phosphate, reference compound]
HA concentrations [1]: 689 ng/mL | Change in HA concentration over Untreated (0.02% active alone, no light): -51 ng/mL | HA concentrations [2]: 1037 ng/mL | Change in HA concentration over Untreated [3]: 297 ng/mL | Synergy of active with red and/or near infrared light in hyaluronic acid production (listed as glucosamine phosphate, phosphate): not observed | Synergy of active with red and/or near infrared light in hyaluronic acid production (phosphate): No synergy was observed | Fold Change versus treatment with light alone [3]: 0.36

N[C@H]1C(O)O[C@H](CO)[C@@H](O)[C@@H]1O (some centres unmarked) [glucosamine]
Synergy of active with red and/or near infrared light in hyaluronic acid production: not observed
